Measured values published in article PMC10100771, “A Novel CMY Variant Confers Transferable High-Level Resistance to Ceftazidime-Avibactam in Multidrug-Resistant Escherichia coli” (Microbiology Spectrum, 2023).
Values after ≈ are worked out from the molar mass of the structure shown. Read-outs that look alike come from different tables or passages of the source.

What was measured:
CMY-178 = molecular target: T1, CMY-178 (Klebsiella pneumoniae, UniProt Q48434, DEL310-312/N366I/N90T); experiment: Ki by direct competition assay with nitrocefin, CMY-178; type: biochemical, Escherichia coli; conditions: for Ki: CMY-178, competition with 100 μM nitrocefin, 2-min incubation, mean ± SD; for Increase of Ki value of CMY-178 compared with CMY-172: CMY-178 vs CMY-172
T1 construct: were amplified without a signal peptide and cloned into the pET28a; His8 (N); made in house; host or cells: E. coli BL21(DE3)
Method: (§1) blaCMYs (including blaCMY-2, blaCMY-172, and blaCMY-178) were amplified without a signal peptide and cloned into the pET28a, which led to the introduction of an N-terminal His8-Tag.The recombinant plasmids were transformed into E. coli BL21(DE3) and selected using Sanger sequencing. Lysogenic broth containing 50 μg/mL kanamycin was inoculated with transformants and grown to reach an OD600 of 0.6. A final concentration of 1 mM isopropyl-β-D-thiogalactopyranoside (IPTG) was added into the resulting culture, which was shaken at 18°C overnight. The culture broth was centrifuged to harvest bacteria. The pellet was resuspended in lysis buffer (50 mM Tris-HCl and 300 mM NaCl (pH 7.5)) and disrupted using a JN-02C French press (JNBIO, Guangzhou, China) at 1,100 bar. Then, the cell debris was removed by centrifugation at 11,000 rpm for 40 min at 4°C. The supernatant was added to an Ni column, and the absorbed protein was eluted by the eluent buffer (lysis buffer with 300 mM imidazole).
(§2) Enzymatic activities were measured using a D8 UV-visible spectrophotometer (Rumqee, Shanghai, China) in phosphate-buffered saline (PBS; pH 7.2) at room temperature. Substrates tested included nitrocefin, ceftazidime, and avibactam. The extinction coefficient and wavelength of nitrocefin are 17,400 M^−1 · cm^−1 and 482 nm, respectively. […] The initial reaction velocities (v) were measured and Ki values were calculated by fitting data into equation 1 with GraphPad Prism v9.0.0 ([37]). (1) v=Vmax[S]/[S]+Km NCF (1+[I]/Ki)

[1] = tested on: E. coli DH5α-pCR2.1-CMY-178; experiment: MIC by agar dilution, transformant containing blaCMY-178; type: cell-based, Escherichia coli
Method: (§3) Antimicrobial susceptibility testing was performed and interpreted according to the Clinical and Laboratory Standards Institute (CLSI) guidelines and breakpoints (M100, 31st edition) by the agar dilution method. E. coli ATCC 25922 and K. pneumoniae ATCC 700603 served as control strains.
(§4) The antibiotics we used included meropenem (Hanhui Pharmaceutical Co., Ltd., China), imipenem (Merck Sharp & Dohme Corp., USA), cefepime (Jiangsu Hengrui Pharmaceutical Co., Ltd., China), piperacillin (Suzhou Erye Pharmaceutical Co., Ltd., China), ceftazidime (Guangdong Jincheng Jinsu Pharmaceutical Co., Ltd., China), tazobactam (Meilunbio, China), avibactam (MedChemExpress, USA), aztreonam (Sigma-Aldrich, USA), amikacin (Meilunbio), cefuroxime (Esseti Farmaceutici S.r.l., Italy), fosfomycin (Harbin Pharmaceutical Group Co., Ltd. China), levofloxacin (Daiichi Sankyo Company Limited, Beijing, China), and cefotaxime (North China Pharmaceutical Hebei Huamin Pharmaceutical Co., Ltd., China).
(§5) The blaCMY cloning was performed using a TA cloning kit (Invitrogen, Shanghai, China). The blaCMY-178 gene combined with its predicted promoter was amplified from isolate AR13438. Then, the blaCMY-178 gene was cloned into the linearized vector pCR2.1 using T4 DNA ligase (Invitrogen). The blaCMY-172 gene was cloned from KPCZA02 with the same method. The resulting plasmids were chemically transformed into E. coli DH5α. The positive transformants were identified by blue-white screening in MH agar containing 50 μg/mL kanamycin and were further confirmed by Sanger sequencing. The pCR2.1 blank vector was also transformed into E. coli DH5α as a control. The primers used for cloning were CMY-F and CMY-R (see Table S2 in the supplemental material). Relative CMY expression was measured by reverse transcription-quantitative PCR as described previously ([34]). Specific quantitative PCR (qPCR) primers (q-recA-F/R and q-CMY-F/R) were designed (Table S2).

E. coli DH5α = experiment: MIC by agar dilution, E. coli DH5α; type: cell-based; conditions: Escherichia coli
Method: as §3, §4

E. coli DH5α-pCR2.1 = experiment: MIC by agar dilution, DH5α with blank vector pCR2.1; type: cell-based; conditions: Escherichia coli
Method: as §3, §4, §5

E. coli J53 = experiment: MIC by agar dilution, recipient E. coli J53; type: cell-based; conditions: Escherichia coli
Method: as §3, §4
(§6) Conjugation experiments were performed by filter mating using sodium-azide-resistant E. coli J53 as the recipient, as described previously. Transconjugants were selected with MH agar containing 100 μg/mL sodium azide and 4 μg/mL ceftazidime-avibactam; furthermore, transconjugants were named J53-AR13438 and J53-KPCZA02, respectively. We compared genomes of AR13438 and J53 to select a unique gene (gtrA) to J53. The blaCMY-178-postive transconjugants were confirmed by PCR and MALDI-TOF MS (see Fig. S9 in the supplemental material). The primers used for PCR were gtrA-F, gtrA-R, CMY-F, and CMY-R (Table S1). The transfer frequencies were calculated as the number of transconjugants (CFU/mL) divided by the number of recipients (CFU/mL). Donors and recipients were mixed at 1:1 for the transfer frequency experiment. S1-PFGE and Southern blotting were performed to define the location of blaCMY-178 and confirm the transmission of the plasmid as described previously ([35]). The MIC profiles of transconjugants were also determined by the agar dilution method.

[2] = tested on: E. coli DH5α-pCR2.1-CMY-172; experiment: MIC by agar dilution, transformant containing blaCMY-172; type: cell-based; conditions: Escherichia coli
Method: as §3, §4, §5

E. coli J53-AR13438 = experiment: MIC by agar dilution, conjugant containing pAR13438_2; type: cell-based; conditions: Escherichia coli, J53AR13438, E. coli J53-AR13438 (blaCMY-178)
Method: as §3
as §6, with “The blaCMY-178-postive transconjugants were confirmed by PCR and MALDI-TOF MS (see Fig. S9 in the supplemental material).” left out

E. coli J53-KPCZA02 = experiment: MIC by agar dilution, conjugant containing pKPCZA02_4; type: cell-based; conditions: Escherichia coli, J53KPCZA02, E. coli J53-KPCZA02 (blaCMY-172)
Method: as §3
as §6, with “The blaCMY-178-postive transconjugants were confirmed by PCR and MALDI-TOF MS (see Fig. S9 in the supplemental material).” left out

[3] = tested on: E. coli DH5α-pCR2.1-CMY-2; experiment: MIC by agar dilution, transformant containing blaCMY-2; type: cell-based; conditions: Escherichia coli
[4] = tested on: K. pneumoniae isolate KPCZA02; experiment: microbe, parasite or virus in culture; type: cell-based; conditions: Klebsiella pneumoniae
Method: as §3

E. coli strain AR13438 = experiment: MIC by agar dilution, clinical isolate AR13438; type: cell-based, Escherichia coli; conditions: Escherichia coli; AR13438, clinical E. coli isolate (blaCMY-178, blaTEM-1, blaCTX-M-27); agar dilution
Method: as §3, §4

CMY-2 = molecular target: T2, CMY-2 (Klebsiella pneumoniae, UniProt Q48434); experiment: Ki by direct competition assay with nitrocefin, CMY-2; type: biochemical
T2 construct: were amplified without a signal peptide and cloned into the pET28a; His8 (N); made in house; host or cells: E. coli BL21(DE3)
Method: as §1
as §2, with “avibactam.” for “avibactam. The extinction coefficient and wavelength of nitrocefin are 17,400 M^−1 · cm^−1 and 482 nm, respectively.”, “(1) v=Vmax[S]/[S]+Km NCF (1+[I]/Ki)” left out

CMY-172 = molecular target: T3, CMY-172 (Klebsiella pneumoniae, UniProt Q48434, DEL310-312/N366I); experiment: Ki by direct competition assay with nitrocefin, CMY-172; type: biochemical; conditions: competition with 100 μM nitrocefin, 2-min incubation, mean ± SD
T3 construct: were amplified without a signal peptide and cloned into the pET28a; His8 (N); made in house; host or cells: E. coli BL21(DE3)
Method: as §1
as §2, with “avibactam.” for “avibactam. The extinction coefficient and wavelength of nitrocefin are 17,400 M^−1 · cm^−1 and 482 nm, respectively.”, “(1) v=Vmax[S]/[S]+Km NCF (1+[I]/Ki)” left out

| SMILES | Ki (CMY-178) [nM] | Increase of Ki value of CMY-178 compared with CMY-172 (CMY-178) | MIC ([1]; Escherichia coli, E. coli DH5α-pCR2.1-CMY-178, agar dilution) [µg/mL] | Increase of MIC by blaCMY-178 compared with blaCMY-172 ([1]; transformants in E. coli DH5α) | MIC (E. coli DH5α) [µg/mL] | MIC (E. coli DH5α-pCR2.1) [µg/mL] | MIC (E. coli J53) [µg/mL] | MIC [2] [µg/mL] | MIC (E. coli J53-AR13438) [µg/mL] | MIC (E. coli J53-KPCZA02) [µg/mL] | MIC [3] [µg/mL] | MIC [4] [µg/mL] | MIC (E. coli strain AR13438) [µg/mL] | Ki (CMY-2; CMY-2, competition with 100 μM nitrocefin, 2-min incubation, mean ± SD, read-out: Ki) [nM] | Ki (CMY-172) [nM] | Ki (CMY-2) [nM] |
| --- | --- | --- | --- | --- | --- | --- | --- | --- | --- | --- | --- | --- | --- | --- | --- | --- |
| CC(C)(O/N=C(\C(=O)N[C@@H]1C(=O)N2C(C(=O)[O-])=C(C[n+]3ccccc3)CS[C@H]12)c1csc(N)n1)C(=O)O [CAZ, ceftazidime] | 9.27 | ~ 5 fold | > 2050 | over 4 fold | 0.25 (≈ 0.457 µM) | 0.25 (≈ 0.457 µM) | 0.25 (≈ 0.457 µM) | 512 (≈ 937 µM) | 1020 (≈ 1870 µM) | 512 (≈ 937 µM) | 256 (≈ 468 µM) | 2050 (≈ 3750 µM) | 2050 (≈ 3750 µM) | 32.1 | 1.06 |  |
| C[C@]1(Cn2ccnn2)[C@H](C(=O)O)N2C(=O)C[C@H]2S1(=O)=O [TAZ, tazobactam] | 2490 ± 510 | less than 2 fold |  |  |  |  |  |  |  |  |  |  |  |  | 2120 ± 340 | 760 ± 70 |
